≈ marks a conversion by molar mass, not a printed value. Read-outs that look alike come from different tables or passages of the source. *1 amine or outer side, *2 acyl side, *3 side chain or, on linkers, in order; H or OH if unused. Where a SMILES comes first, the peptide text is derived from it. Bridges are numbered along the chain shown (N, C = ends). [ ]: non-standard residue; d: D form. The star is where a group is joined. ξ: configuration not given here. Piperazine(2S-CO,4-Me) = CN1CCN[C@H](C(=O)O)C1; Phe(3,5-F2) = N[C@@H](Cc1cc(F)cc(F)c1)C(=O)O; NH(1-Me-indolin-5-yl) = CN1CCc2cc(N*)ccc21; Morpholine(3S-CO) = O=C(O)[C@@H]1COCCN1; Pro(4S-Me) = C[C@@H]1CN[C@H](C(=O)O)C1; NH(4-Cl-2-F-phenyl) = Fc1cc(Cl)ccc1N*; Pro(4R-Me) = C[C@H]1CN[C@H](C(=O)O)C1; NMeaThr = CN[C@H](C(=O)O)[C@H](C)O; Hyp = O=C(O)[C@@H]1C[C@@H](O)CN1; NH(4-Et-phenyl) = CCc1ccc(N*)cc1; Heptenoyl(2E) = CCCC/C=C/C(=O)*; NH(4-Me-phenyl) = Cc1ccc(N*)cc1; ξNMeThr = CNC(C(=O)O)[C@@H](C)O; aThr = C[C@H](O)[C@H](N)C(=O)O; Pip = O=C(O)[C@@H]1CCCCN1; CO = O=C([*:1])[*:2]
Key:
Format in all cases: cell-based
[1] = system: Staphylococcus aureus, USA 300 wherein ClpP is inactivated; experiment: Minimal inhibitory concentration assay
Summary of the method: (§1)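 Paired MICs against USA 300 and its ClpP-inactivated counterpart test whether killing runs through ClpP. All strains: two-fold broth dilutions from 200 μM final, ~10^5 cfu/mL inoculum, overnight at 37 °C in air, lowest growth-free concentration read by eye.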

[2] = system: Staphylococcus aureus, USA 300; experiment: Minimal inhibitory concentration assay; conditions: USA300, read-out: Minimal Inhibitory Concentrations S. aureus USA 300
Summary of the method: as §1

[3] = Cytotoxicity assay (CellTiter-Glo cell viability, 72 hours); conditions: African green monkey
Summary of the method: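 Viability measured by CellTiter-Glo luminescence after 72-hour compound exposure (serial dilutions, DMSO control) of Vero monolayers seeded at 5000 cells/well in 10% FBS DMEM. IC50 values are the range of two biologically independent experiments, each run in duplicate.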

[4] = system: Enterococcus faecalis, ATCC 33186; experiment: Minimal inhibitory concentration assay (microbroth dilution)
Summary of the method: as §1

[5] = Vero cells, 72 hours, growth inhibition, read-out: Cytotoxicity IC50
[6] = Enterococcus faecalis, ATCC33186, read-out: Minimal Inhibitory Concentrations E. faecalis ATCC 33186
[7] = Enterococcus faecalis, ATCC33186; read-out: Minimal Inhibitory Concentrations E. faecalis ATCC 33186

In the case of `CCCC/C=C/C(=O)N[C@@H](Cc1cc(F)cc(F)c1)C(=O)N[C@@H]1C(=O)N2C[C@H](O)C[C@H]2C(=O)N2CCCC[C@H]2C(=O)N[C@@H](C)C(=O)N2C[C@H](C)C[C@H]2C(=O)O[C@H]1C` [Compound 301, (E)-N—((S)-3-(3,5-difluorophenyl)-1-(((2R,6S,8aS,14aS,16R,20S,21S,23aS)-16-hydroxy-2,6,21-trimethyl-5,8,14,19,23-pentaoxooctadecahydro-1H,5H,14H,19H-pyrido[2,1-i]dipyrrolo[2,1-c:2′,1′-l][1]oxa[4,7,10,13]tetraazacyclohexadecin-20-yl)amino)-1-oxopropan-2-yl)hept-2-enamide] ({Heptenoyl(2E)}-[Phe(3,5-F2)][aThr][Hyp][Pip]A[Pro(4R-Me)]; ester 2-C), the “Minimal Inhibitory Concentrations S. aureus USA 300 ΔClpP” value [1] is reported as over 20 µM, the MIC [2] is reported as 0.079 µM (≈ 0.0633 µg/mL) and the IC50 at 72 h [3, 5] is reported as 61.1 ± 1.7 µM. It also gave an MIC [4, 6] of under 0.0098 µM.
In the case of `Cc1ccc(NC(=O)N[C@@H](Cc2cc(F)cc(F)c2)C(=O)N[C@H]2COC(=O)[C@@H]3C[C@@H](C)CN3C(=O)[C@H](C)NC(=O)[C@@H]3COCCN3C(=O)[C@@H]3C[C@@H](O)CN3C2=O)cc1` [Compound 317, (S)-3-(3,5-difluorophenyl)-N-((6aS,8R,12S,15aS,17R,21S,23aS)-8-hydroxy-17,21-dimethyl-6,11,15,20,23-pentaoxooctadecahydro-6H,11H,15H-[1,4]oxazino[3,4-i]dipyrrolo[2,1-c:2′,1′-l][1]oxa[4,7,10,13]tetraazacyclohexadecin-12-yl)-2-(3-(p-tolyl)ureido)propanamide] ({NH(4-Me-phenyl)-CO}-[Phe(3,5-F2)]S[Hyp][Morpholine(3S-CO)]A[Pro(4R-Me)]; ester 2-C), the “Minimal Inhibitory Concentrations S. aureus USA 300 ΔClpP” value [1] is reported as 12.5 µM, the MIC [2] is reported as 12.5 µM (≈ 10.1 µg/mL) and the IC50 at 72 h [3, 5] is reported as over 100 µM. It also gave an MIC [4, 6] of 0.313 µM (≈ 0.254 µg/mL).
With `C[C@@H]1C[C@H]2C(=O)OC[C@H](NC(=O)[C@H](Cc3cc(F)cc(F)c3)NC(=O)Nc3ccc(Cl)cc3F)C(=O)N3CCC[C@H]3C(=O)N3CCN(C)C[C@H]3C(=O)N[C@@H](C)C(=O)N2C1` [Compound 330, (S)-2-(3-(4-chloro-2-fluorophenyl)ureido)-3-(3,5-difluorophenyl)-N-((6aS,12S,15aS,17R,21S,23aS)-2,17,21-trimethyl-6,11,15,20,23-pentaoxooctadecahydro-2H,6H,11H,15H-pyrazino[2,1-i]dipyrrolo[2,1-c:2′,1′-l][1]oxa[4,7,10,13]tetraazacyclohexadecin-12-yl)propanamide] ({NH(4-Cl-2-F-phenyl)-CO}-[Phe(3,5-F2)]SP[Piperazine(2S-CO,4-Me)]A[Pro(4R-Me)]; ester 2-C) the “Minimal Inhibitory Concentrations S. aureus USA 300 ΔClpP” value [1] was over 20 µM, the MIC [2] was 0.156 µM (≈ 0.132 µg/mL) and the IC50 at 72 h [3] was over 50 µM. It also gave an MIC [4, 7] of under 0.02 µM.
In the case of `C[C@@H]1C[C@H]2C(=O)O[C@@H](C)[C@H](NC(=O)[C@H](Cc3cc(F)cc(F)c3)NC(=O)Nc3ccc(Cl)cc3F)C(=O)N3CCC[C@H]3C(=O)N(C)C([C@@H](C)O)C(=O)N[C@@H](C)C(=O)N2C1` (stereo partly drawn) [Compound 313, (S)-2-(3-(4-chloro-2-fluorophenyl)ureido)-3-(3,5-difluorophenyl)-N-((2R,6S,9R,11aS,17S,18S,20aS)-9-((R)-1-hydroxyethyl)-2,6,10,18-tetramethyl-5,8,11,16,20-pentaoxohexadecahydro-1H,5H,16H-dipyrrolo[2,1-c:2′,1′-l][1]oxa[4,7,10,13]tetraazacyclohexadecin-17-yl)propanamide] ({NH(4-Cl-2-F-phenyl)-CO}-[Phe(3,5-F2)][aThr]P[ξNMeThr]A[Pro(4R-Me)]; ester 2-C), the “Minimal Inhibitory Concentrations S. aureus USA 300 ΔClpP” value [1] is reported as over 20 µM, the MIC [2] is reported as under 0.02 µM and the IC50 at 72 h [3] is reported as 13.5 ± 3.9 µM. It also gave an MIC [4, 7] of 0.039 µM (≈ 0.0332 µg/mL).
For `CCc1ccc(NC(=O)N[C@@H](Cc2cc(F)cc(F)c2)C(=O)N[C@@H]2C(=O)N3CCC[C@H]3C(=O)N(C)[C@@H]([C@H](C)O)C(=O)N[C@@H](C)C(=O)N3C[C@@H](C)C[C@H]3C(=O)O[C@H]2C)cc1` [Compound 204, (S)-3-(3,5-difluorophenyl)-2-(3-(4-ethylphenyl)ureido)-N-((2S,6S,9S,11aS,17S,18S,20aS)-9-((S)-1-hydroxyethyl)-2,6,10,18-tetramethyl-5,8,11,16,20-pentaoxohexadecahydro-1H,5H,16H-dipyrrolo[2,1-c:2′,1′-l][1]oxa[4,7,10,13]tetraazacyclohexadecin-17-yl)propanamide] ({NH(4-Et-phenyl)-CO}-[Phe(3,5-F2)][aThr]P[NMeaThr]A[Pro(4S-Me)]; ester 2-C), the “Minimal Inhibitory Concentrations S. aureus USA 300 ΔClpP” value [1] was 100 µM, the MIC [2] was 0.098 µM (≈ 0.0809 µg/mL) and the IC50 at 72 h [3] was 33.8 ± 1.6 µM. For the same molecule, the MIC [4, 7] was 0.195 µM (≈ 0.161 µg/mL).
In the case of `C[C@@H]1C[C@H]2C(=O)O[C@@H](C)[C@H](NC(=O)[C@H](Cc3cc(F)cc(F)c3)NC(=O)Nc3ccc4c(c3)CCN4C)C(=O)N3CCC[C@H]3C(=O)N3CCOC[C@H]3C(=O)N[C@@H](C)C(=O)N2C1` [Compound 312, (S)-3-(3,5-difluorophenyl)-2-(3-(1-methylindolin-5-yl)ureido)-N-((6aS,12S,13S,15aS,17R,21S,23aS)-13,17,21-trimethyl-6,11,15,20,23-pentaoxooctadecahydro-6H,11H,15H-[1,4]oxazino[3,4-i]dipyrrolo[2,1-c:2′,1′-l][1]oxa[4,7,10,13]tetraazacyclo-hexadecin-12-yl)propanamide] ({NH(1-Me-indolin-5-yl)-CO}-[Phe(3,5-F2)][aThr]P[Morpholine(3S-CO)]A[Pro(4R-Me)]; ester 2-C), the “Minimal Inhibitory Concentrations S. aureus USA 300 ΔClpP” value [1] is reported as over 20 µM, the MIC [2] is reported as 0.156 µM (≈ 0.133 µg/mL) and the IC50 at 72 h [3, 5] is reported as 2.87 µM. For the same molecule, the MIC [4, 6] was 0.039 µM (≈ 0.0332 µg/mL).
For `C[C@@H]1C[C@H]2C(=O)O[C@@H](C)[C@H](NC(=O)[C@H](Cc3cc(F)cc(F)c3)NC(=O)Nc3ccc4c(c3)CCN4C)C(=O)N3CCC[C@H]3C(=O)N(C)C([C@@H](C)O)C(=O)N[C@@H](C)C(=O)N2C1` (stereo partly drawn) [Compound 311, (S)-3-(3,5-difluorophenyl)-N-((2R,6S,9R,11aS,17S,18S,20aS)-9-((R)-1-hydroxyethyl)-2,6,10,18-tetramethyl-5,8,11,16,20-pentaoxohexadecahydro-1H,5H,16H-dipyrrolo[2,1-c:2′,1′-l][1]oxa[4,7,10,13]tetraazacyclohexadecin-17-yl)-2-(3-(1-methylindolin-5-yl)ureido)propanamide] ({NH(1-Me-indolin-5-yl)-CO}-[Phe(3,5-F2)][aThr]P[ξNMeThr]A[Pro(4R-Me)]; ester 2-C), the “Minimal Inhibitory Concentrations S. aureus USA 300 ΔClpP” value [1] was over 20 µM, the MIC [2] was 0.156 µM (≈ 0.133 µg/mL) and the IC50 at 72 h [3, 5] was 14.3 ± 0.3 µM. The MIC [4, 6] was 0.039 µM (≈ 0.0333 µg/mL).
For `C[C@@H]1C[C@H]2C(=O)O[C@@H](C)[C@H](NC(=O)[C@H](Cc3cc(F)cc(F)c3)NC(=O)Nc3ccc(Cl)cc3F)C(=O)N3CCC[C@H]3C(=O)N3CCOC[C@H]3C(=O)N[C@@H](C)C(=O)N2C1` [Compound 314, (S)-2-(3-(4-chloro-2-fluorophenyl)ureido)-3-(3,5-difluorophenyl)-N-((6aS,12S,13S,15aS,17R,21S,23aS)-13,17,21-trimethyl-6,11,15,20,23-pentaoxooctadecahydro-6H,11H,15H-[1,4]oxazino[3,4-i]dipyrrolo[2,1-c:2′,1′-l][1]oxa[4,7,10,13]tetraazacyclo-hexadecin-12-yl)propanamide] ({NH(4-Cl-2-F-phenyl)-CO}-[Phe(3,5-F2)][aThr]P[Morpholine(3S-CO)]A[Pro(4R-Me)]; ester 2-C), the “Minimal Inhibitory Concentrations S. aureus USA 300 ΔClpP” value [1] was over 20 µM, the MIC [2] was under 0.02 µM and the IC50 at 72 h [3] was 2.39 ± 0.8 µM. It also gave an MIC [4, 7] of 0.039 µM (≈ 0.0331 µg/mL).

Source: US10457707B2, “Substituted urea depsipeptide analogs as activators of the CLPP endopeptidase” (priority 2015, dated 2019)
